This note sets out measurements from patent publication US20060111305A1, “Metabolites of certain [1,4]diazepino[6,7,1-ij]quinoline derivatives and methods of preparation and use thereof” (Wyeth, priority 2004, published 2006).

The nature of data set [1]: M6 to DCDQ ratios in human urine, LC/MS (Table 35). The format is in vivo, healthy human subjects. Here is the method: Drug administration and specimen collection were performed in a randomized, double-blinded, placebo-controlled, ascending single dose study of the safety, tolerability, pharmacokinetics, and pharmacodynamics of DCDQ administered orally to healthy subjects and subjects with schizophrenia and schizoaffective disorder. The specimens were stored at approximately −70° C. until analysis for metabolite profiles and for ratios of carbamoyl glucuronide (M6) to DCDQ.
The 0-4, 4-12 and 12-24 hr urine samples from the same subjects in the single dose groups were analyzed for ratios of M6 to DCDQ. The internal standard was not used in the analysis of urine samples. The samples were diluted for 20-fold with a control urine sample and directly analyzed by LC/MS. To estimate M6-to-DCDQ ratios in human urine, control urine samples were spiked with 200 ng/mL of DCDQ and 1000, 5000, or 10000 ng/mL of DCDQ carbamoyl glucuronide, and were analyzed by LC/MS.
LC/MS System 3 was used for semi-quantitative analysis of metabolite M6 (DCDQ carbamoyl glucuronide) in plasma and urine samples. The HPLC equipment for this LC/MS System consisted of a Thermo Surveyor HPLC (Thermo Electron Corp., San Jose, Calif.), including a Surveyor MS pump and autosampler. Separations were accomplished on a 5 micron Phenomenex Luna C18(2) column, 150×2 mm (Phenomenex, Torrance, Calif.). The autosampler and column temperatures were set at 5° C. and 40° C., respectively. The HPLC mobile phase consisted of 10 mM ammonium acetate (A) and methanol (B), and was delivered at 0.2 mL/min. The linear mobile phase gradient (HPLC Gradient 2) is shown below. During LC/MS sample analysis, up to 3 min of the initial flow was diverted away from the mass spectrometer prior to evaluation of metabolites.
The mass spectrometer used for semi-quantitative anslysis with LC/MS System 3 was a Finnigan TSQ Quantum triple quadrupole mass spectrometer (Thermo Electron Corp.). The mass spectrometer was equipped with an electrospray interface and operated in the positive ionization mode. Settings for this mass spectrometer are listed below.
LC/MS/MS analysis in the selected reaction monitoring (SRM) mode (LC/SRM) was conducted for DCDQ and M6 using the following settings.

Data set [2] relates to cryopreserved human hepatocytes. The data set can be described thus: Incubation of [14C]DCDQ with cryopreserved human hepatocytes. In kind it is in vitro ADME. The conditions noted are these: 4 hours. How it is done: Vials containing cryopreserved human hepatocytes were thawed in a 37° C. water bath with gentle shaking until the ice was almost melted. The vials were removed from the water bath and gentle shaking continued at room temperature for 30-60 seconds until completely thawed. The hepatocyte suspensions from each vial were immediately transferred to pre-cooled 50 mL beakers on ice. To each beaker, 12 mL of ice-cold hepatocyte suspension media was added dropwise over one minute, with occasional, gentle shaking by hand to prevent the cells from settling. The cell suspensions were transferred to a 15 mL tube and centrifuged at 100 g force for 3 min at 4° C. (Model T21 super centrifuge, Sorvall). The supernatant was discarded and the pellets were re-suspended in 4 mL of ice-cold hepatocyte culture media. The cell suspensions contained approximately 3.1×10^6 viable hepatocytes/mL. The average viability was 76.0% as determined using Trypan Blue exclusion and a hemacytometer.
The cell suspensions were distributed into 12-well plates at 1.0 mL per well. Incubations were performed using pooled hepatocytes from two donors. [^14C]DCDQ in water was added to the hepatocyte suspension at a final concentration of 10 or 50 μM. Incubations were carried out at 37° C. for 4 hours in an incubator supplied with 5% CO2. At the end of the incubation, the reaction was stopped by the addition of 200 μL cold methanol to each well. The content of each well was transferred to a 15 mL centrifuge tube and sonicated for 30 seconds. After vortex mixing with 6 mL methanol and then centrifugation, the supernatant was transferred to a clean tube and evaporated to about 0.5 mL in a TurboVap evaporator. The residue was analyzed by HPLC and LC/MS.
A Waters model 2690 HPLC system (Waters Corp., Milford, Mass.) with a built-in autosampler was used for analysis. […] A variable wavelength UV detector set to monitor 250 nm and Flo-One β Model A525 radioactivity flow detector (Perkin Elmer) with a 250 μL LQTR flow cell were used for data acquisition. […]

[3] abbreviates: 50 mg (fasted), 0-4 hr, Mean ± S.D.
[4] abbreviates: 50 mg (fasted), 0-4 hr, individual subjects.
Where [5] appears, read: 50 mg (fasted), 4-12 hr, Mean ± S.D.
The mark [6] stands for this setting: 50 mg (fasted), 4-12 hr, individual subjects.
Setting [7] is: 50 mg (fasted), 12-24 hr, individual subjects.
Setting [8] is: 200 mg (fasted), 0-4 hr, Mean ± S.D.
Setting [9] is: 200 mg (fasted), 0-4 hr, individual subjects.
[10] abbreviates: 200 mg (fasted), 4-12 hr, Mean ± S.D.
The mark [11] stands for this setting: 200 mg (fasted), 4-12 hr, individual subjects.
The mark [12] stands for this setting: 200 mg (fasted), 12-24 hr, Mean ± S.D.
Where [13] appears, read: 200 mg (fasted), 12-24 hr, individual subjects.
Where [14] appears, read: 300 mg (fasted), 0-4 hr, Mean ± S.D.
Where [15] appears, read: 300 mg (fasted), 0-4 hr, individual subjects.
Setting [16] is: 300 mg (fasted), 4-12 hr, Mean ± S.D.
Where [17] appears, read: 300 mg (fasted), 4-12 hr, individual subjects.
The mark [18] stands for this setting: 300 mg (fasted), 12-24 hr, Mean ± S.D.
The mark [19] stands for this setting: 300 mg (fasted), 12-24 hr, individual subjects.
Setting [20] is: 300 mg (fed), 0-4 hr, Mean ± S.D.
Where [21] appears, read: 300 mg (fed), 0-4 hr, individual subjects.
Setting [22] is: 300 mg (fed), 4-12 hr, Mean ± S.D.
[23] abbreviates: 300 mg (fed), 4-12 hr, individual subjects.
[24] abbreviates: 300 mg (fed), 12-24 hr, Mean ± S.D.
The mark [25] stands for this setting: 300 mg (fed), 12-24 hr, individual subjects.
Where [26] appears, read: 500 mg (fasted), 0-4 hr, Mean ± S.D.
[27] abbreviates: 500 mg (fasted), 0-4 hr, individual subjects.
Setting [28] is: 500 mg (fasted), 4-12 hr, Mean ± S.D.
[29] abbreviates: 500 mg (fasted), 4-12 hr, individual subjects.
Where [30] appears, read: 500 mg (fasted), 12-24 hr, Mean ± S.D.
[31] abbreviates: 500 mg (fasted), 12-24 hr, individual subjects.

Several values for one entry are separate records, joined by “and”; a condition that tells them apart may be missing. Identical values can stand only once.

Regarding `c1cc2c3c(c1)[C@H]1CCC[C@H]1CN3CCNC2` [DCDQ, (9aR,12aS)-4,5,6,7,9,9a,10,11,12,12a-decahydro-cyclopenta[c][1,4]diazepine[6,7,1-ij]quinoline, reference compound], the “DCDQ concentration in urine” value is 47.5 ± 58.5 ng/mL in data set [1] (setting [3]); 115 ng/mL and 13.7 ng/mL (2×) in data set [1] (setting [4]); 58.4 ± 58.9 ng/mL in data set [1] (setting [5]); 31 ng/mL and 18.2 ng/mL and 126 ng/mL in data set [1] (setting [6]); 32.7 ± 37.4 ng/mL in data set [1] (50 mg (fasted), 12-24 hr, Mean); 17.7 ng/mL and 5.21 ng/mL and 75.3 ng/mL in data set [1] (setting [7]). Moreover, the “DCDQ concentration in urine” value in data set [1] (setting [8]) is 199 ± 124 ng/mL; in data set [1] (setting [9]) it was 251 ng/mL and 288 ng/mL and 57 ng/mL; in data set [1] (setting [10]), 118 ± 51.9 ng/mL; in data set [1] (setting [11]), 79.5 ng/mL and 177 ng/mL and 97.3 ng/mL; in data set [1] (setting [12]) it was 114 ± 81.5 ng/mL; in data set [1] (setting [13]) it was 23.1 ng/mL and 181 ng/mL and 137 ng/mL. Moreover, the “DCDQ concentration in urine” value was 81.4 ± 82.9 ng/mL in data set [1] (setting [14]); 9.43 ng/mL and 62.8 ng/mL and 172 ng/mL in data set [1] (setting [15]); 62.5 ± 36.8 ng/mL in data set [1] (setting [16]); 21.7 ng/mL and 93.4 ng/mL and 72.3 ng/mL in data set [1] (setting [17]); 128 ± 148 ng/mL in data set [1] (setting [18]); 22.9 ng/mL and 298 ng/mL and 64.1 ng/mL in data set [1] (setting [19]). Besides, the “DCDQ concentration in urine” value in data set [1] (setting [20]) is 19.8 ± 31.3 ng/mL; in data set [1] (setting [21]), 55.9 ng/mL and 1.56 ng/mL and 1.82 ng/mL; in data set [1] (setting [22]), 155 ± 115 ng/mL; in data set [1] (setting [23]), 259 ng/mL and 174 ng/mL and 30.6 ng/mL; in data set [1] (setting [24]) it was 258 ± 125 ng/mL; in data set [1] (setting [25]), 351 ng/mL and 116 ng/mL and 308 ng/mL. Besides, the “DCDQ concentration in urine” value in data set [1] (setting [26]) is 914 ± 619 ng/mL; in data set [1] (setting [27]), 1569 ng/mL and 835 ng/mL and 339 ng/mL; in data set [1] (setting [28]), 1369 ± 658 ng/mL; in data set [1] (setting [29]) it was 1683 ng/mL and 612 ng/mL and 1811 ng/mL; in data set [1] (setting [30]), 279 ± 123 ng/mL; in data set [1] (setting [31]), 160 ng/mL and 405 ng/mL and 273 ng/mL.
Turning to `O=C(O)[C@H]1O[C@@H](OC(=O)N2CCN3C[C@@H]4CCC[C@@H]4c4cccc(c43)C2)[C@H](O)[C@@H](O)[C@@H]1O` [Metabolite M6, carbamoyl glucuronide of DCDQ], the “relative abundance of metabolite in human hepatocytes” value in data set [2] (50 μM DCDQ) is given as “most prominent metabolite”. In addition, the “M6 to DCDQ Ratios” value in data set [1] (setting [3]) was 841 ± 798; in data set [1] (setting [4]) it was 214 and 571 and 1739; in data set [1] (setting [5]), 419 ± 174; in data set [1] (setting [6]), 389 and 606 and 261; in data set [1] (50 mg (fasted), 12-24 hr, Mean), 155 ± 98.1; in data set [1] (setting [7]) it was 143 and 259 and 63.9. The “M6 to DCDQ Ratios” value in data set [1] (setting [8]) was 151 ± 32.9; in data set [1] (setting [9]), 169 and 171 and 113; in data set [1] (setting [10]), 284 ± 98.7; in data set [1] (setting [11]) it was 397 and 240 and 215; in data set [1] (setting [12]) it was 115 ± 90.4; in data set [1] (setting [13]) it was 216 and 85.9 and 42.3. Further, the “M6 to DCDQ Ratios” value in data set [1] (setting [14]) was 820 ± 365; in data set [1] (setting [15]), 1167 and 852 and 440; in data set [1] (setting [16]), 732 ± 702; in data set [1] (setting [17]), 329 and 1543 and 324; in data set [1] (setting [18]) it was 241 ± 212; in data set [1] (setting [19]) it was 485 and 127 and 110. For the same compound, the “M6 to DCDQ Ratios” value is 1018 ± 520 in data set [1] (setting [20]); 1162 and 441 and 1451 in data set [1] (setting [21]); 761 ± 508 in data set [1] (setting [22]); 375 and 571 and 1337 in data set [1] (setting [23]); 142 ± 46.0 in data set [1] (setting [24]); 148 and 92.6 and 184 in data set [1] (setting [25]). Also, the “M6 to DCDQ Ratios” value in data set [1] (setting [26]) was 97.6 ± 55.2; in data set [1] (setting [27]), 71.5 and 60.2 and 161; in data set [1] (setting [28]) it was 84.3 ± 58.6; in data set [1] (setting [29]), 149 and 34.6 and 69.4; in data set [1] (setting [30]) it was 176 ± 128; in data set [1] (setting [31]) it was 288 and 36.0 and 203.
On to `O=C1CC[C@@H]2c3cccc4c3N(CCNC4)C[C@H]12` [Metabolite M7, 17-keto DCDQ], for which the “metabolite detected in human hepatocyte incubations” value in data set [2] (10 or 50 μM DCDQ) is reported as “detected”.
